Values joined by “and” are separate entries in the source; they are usually repeats but may differ in a detail not shown here. Equal values may be shown once.
Tests used:
[1] = tested on: MRSA strains BB 568, EMRSA-15 and EMRSA-16; test: Intrinsic antibacterial activity, summary over three strains; format: cell-based, Staphylococcus aureus; details: compound alone, in words
Method: (§1) Bacterial strains: S. aureus BB568 (COL-type strain that carries mecA and pT181) was provided by Professor B. Berger-Bächi. EMRSA-15 and EMRSA-16 were clinical isolates from the Royal Free Hospital, London.
(§2) Antibacterial susceptibility testing: Minimum Inhibitory Concentration (MIC) was determined by both broth and agar dilution techniques. Broth MIC testing was performed in 96-well microtitre trays with an inoculum of about 10^4 cfu in 100 μL of Mueller-Hinton broth (MHB) (Oxoid, Basingstoke, United Kingdom) supplemented with 2% NaCl. MIC determinations by agar dilution were carried out using Mueller-Hinton agar (Oxoid) with an inoculum of about 10^4 organisms per spot. For both methods, MIC values were obtained after incubation at 35° C. for 24 h. S. aureus ATCC29213 was used as the standard.
(§3) Sub-inhibitory concentrations (6.25, 12.5 and 25 mg/L) of both compounds were effective in reducing the MIC of all three strains examined.

S. aureus BB568 [2] = test: MIC of compound alone, broth dilution; format: cell-based, Staphylococcus aureus; details: 35° C., 24 h
Method: as §1, §2

EMRSA-16 [3] = test: MIC of compound alone, broth dilution; format: cell-based, Staphylococcus aureus; details: MHB + 2% NaCl, 35° C., 24 h
Method: as §1, §2

EMRSA-15 [4] = test: MIC of compound alone, broth dilution; format: cell-based, Staphylococcus aureus; details: MHB + 2% NaCl, 35° C., 24 h
Method: as §1, §2

S. aureus BB568 [5] = test: MIC of oxacillin in absence or presence of fixed concentration of compound; format: cell-based, Staphylococcus aureus; details: BB 568
Method: as §1, §2
(§4) With the amide derivatives (21 and 24) in hand, their efficacy as modulators for β-lactam resistance in S. aureus was evaluated by determining their capcity to reduce the minimum inhibitory concentration (MIC) of oxacillin against MRSA strains BB 568, EMRSA-15 and EMRSA-16 as described in example 2.
(§5) With the B-ring modified analogues 47 and 48 in hand, their efficacy as modulators for β-lactam resistance in S. aureus was evaluated by determining their capacity to reduce the minimum inhibitory concentration (MIC) of oxacillin against MRSA strains BB 568, EMSRA-15 and EMSRA-16 (Table 5)

EMRSA-16 [6] = test: as above; format: cell-based, Staphylococcus aureus
Method: as §1, §2, §4, §5

EMRSA-15 [7] = test: as above; format: cell-based, Staphylococcus aureus
Method: as §1, §2, §4, §5

porcine liver esterase = test: Esterase sensitivity; format: in vitro ADME; details: porcine liver esterase (Sigma), 10 min at 37° C.
Method: The product of example 1 was tested for in esterase sensitivity as compared to ECG using commercially available porcine liver esterase (Sigma).

MRSA strain BB568 = details: cited from earlier work; for MIC of oxacillin in combination with compound: fixed sub-inhibitory concentration of compound
EMRSA-16 cells = test: Binding of catechins to staphylococcal cells (HPLC of unbound catechin); design: species or system Staphylococcus aureus; details: compound added alone
Text: The method is based on Hashimoto, T. et al 1999.

40 MRSA strains = details: all 40 MRSA strains; cited from earlier work
[8] = tested on: MRSA strains BB 568, EMRSA-15 and EMRSA-16; test: Modulation of oxacillin resistance, summary over three strains; format: cell-based, Staphylococcus aureus; details: for potency as oxacillin sensitiser compared with ECg: 6.25 mg/L of catechin gallate
Method: as §1, §2, §3
At a concentration of 25 mg/L, ECg and the two analogues (47 and 48) fully sensitised each of the three MRSA strains to oxacillin, reducing the MICs to less than 0.5 mg/L, a figure well below the clinically-relevant breakpoint for β-lactam antbiotics.

[9] = Staphylococcus aureus, BB568, BB 568, MHB + 2% NaCl, read-out: MIC
[10] = Staphylococcus aureus, read-out: MIC
[11] = in presence of 25 mg/L compound
[12] = in presence of 6.25 mg/L compound
[13] = in presence of 12.5 mg/L compound
[14] = in presence of 12.5 mg/L compound, listed as ECG
[15] = Staphylococcus aureus, absence of compound, 35° C., 24 h

| Oxacillin MIC (S. aureus BB568 [5]; [11]) | Oxacillin MIC (EMRSA-16 [6]; [11]) | Oxacillin MIC (S. aureus BB568 [5]; [12]) [mg/L] | Oxacillin MIC (EMRSA-16 [6]; [12]) | Oxacillin MIC (EMRSA-15 [7]; [12]) | MIC (S. aureus BB568 [2]; BB 568, MHB + 2% NaCl) | MIC (EMRSA-16 [3]) | MIC (EMRSA-15 [4]) | Structure (SMILES) | intrinsic antibacterial activity [1] | Oxacillin MIC (EMRSA-15 [7]; [11]) | MIC of oxacillin in combination with compound (MRSA strain BB568) | Oxacillin MIC (S. aureus BB568 [5]; [13]) | Oxacillin MIC (EMRSA-16 [6]; [13]) | Oxacillin MIC (EMRSA-15 [7]; [13]) | also measured |
| --- | --- | --- | --- | --- | --- | --- | --- | --- | --- | --- | --- | --- | --- | --- | --- |
| 64/64 | 256/512 | – | – | – | – | – | – | O=C(N[C@H]1Cc2c(O)cc(O)cc2O[C@@H]1c1ccc(O)c(O)c1)c1cc(O)c(O)c(O)c1 [Compound 24] | extremely weak intrinsic antibacterial activity | significant degree of sensitisation and 2/4 | – | – | – | – | MIC (S. aureus BB568 [2]; [9]): 256 µg/mL; MIC (EMRSA-16 [3]; [10]): 128 µg/mL; MIC (EMRSA-15 [4]; [10]): 256 µg/mL |
| ≦0.5 mg/L | ≦0.5 mg/L | 16 | 64 mg/L | 2 mg/L | 128 µg/mL | 32 µg/mL | 64 µg/mL | O=C(O[C@@H]1Cc2c(O)cc(O)cc2O[C@@H]1c1cc(O)cc(O)c1)c1cc(O)c(O)c(O)c1 [Compound 48, (−)-3,5-dihydroxy B ring modified (−)-ECg] | weak to moderate anti-staphylococcal activity | ≦0.5 mg/L | – | 1 mg/L | ≦0.5 mg/L | ≦0.5 mg/L | potency as oxacillin sensitiser compared with ECg [8]: less potent than the natural compound |
| ≦0.5 mg/L | ≦0.5 mg/L | 16 | 32 mg/L | 2 mg/L | >128 µg/mL | 128 µg/mL | >128 µg/mL | O=C(O[C@@H]1Cc2c(O)cc(O)cc2O[C@@H]1c1cccc(O)c1)c1cc(O)c(O)c(O)c1 [Compound 47, (−)-3-hydroxy B ring modified (−)-ECg] | little or no intrinsic antibacterial activity | ≦0.5 mg/L | – | 2 mg/L | 1 mg/L | ≦0.5 mg/L | potency as oxacillin sensitiser compared with ECg [8]: less potent than the natural compound |
| – | – | – | – | – | – | – | – | Oc1cc(O)c2c(c1)O[C@H](c1cc(O)c(O)c(O)c1)[C@H](O)C2 [EGC, epigallocatechin] | – | – | inactive | – | – | – | – |
| – | – | – | – | – | – | – | – | Cc1onc(-c2ccccc2)c1C(=O)N[C@@H]1C(=O)N2[C@@H]1SC(C)(C)[C@@H]2C(=O)O [Oxacillin, oxacillin, reference compound] | – | – | – | – | – | – | MIC for oxacillin (MRSA strain BB568; oxacillin alone): 256 µg/mL; Oxacillin MIC (S. aureus BB568 [5]; absence of compound, 35° C., 24 h, listed as Oxacillian): 256 mg/L; MIC (S. aureus BB568 [5]; Staphylococcus aureus, BB568, absence of compound, 35° C., 24 h): 256 µg/mL; MIC (EMRSA-16 [6]; [15]): 512 µg/mL; MIC (EMRSA-15 [7]; [15]): 32 µg/mL |
| – | – | – | – | – | – | – | – | O=C(O[C@@H]1Cc2c(O)cc(O)cc2O[C@@H]1c1cc(O)c(O)c(O)c1)c1cc(O)c(O)c(O)c1 [EGCg, epigallocatechin gallate] | – | – | 8 µg/mL | – | – | – | Binding (%) (EMRSA-16 cells): 16.2% |

| Structure (SMILES) | Oxacillin MIC (S. aureus BB568 [5]; [11]) | Oxacillin MIC (EMRSA-16 [6]; [11]) | Oxacillin MIC (S. aureus BB568 [5]; [12]) [mg/L] | Oxacillin MIC (EMRSA-16 [6]; [12]) | Oxacillin MIC (EMRSA-15 [7]; [12]) | MIC (S. aureus BB568 [2]; BB 568, MHB + 2% NaCl) | MIC (EMRSA-16 [3]) | MIC (EMRSA-15 [4]) | intrinsic antibacterial activity [1] | Oxacillin MIC (EMRSA-15 [7]; [11]) | MIC of oxacillin in combination with compound (MRSA strain BB568) | Oxacillin MIC (S. aureus BB568 [5]; [13]) | Oxacillin MIC (EMRSA-16 [6]; [13]) | Oxacillin MIC (EMRSA-15 [7]; [13]) | also measured |
| --- | --- | --- | --- | --- | --- | --- | --- | --- | --- | --- | --- | --- | --- | --- | --- |
| O=C(O[C@@H]1Cc2c(O)cc(O)cc2O[C@@H]1c1ccc(O)c(O)c1)c1cc(O)c(O)c(O)c1 [ECg, (−)-epicatechin gallate, reference compound] | ≦0.5 mg/L | ≦0.5 mg/L | 1 | ≦0.5 mg/L | ≦0.5 mg/L | – | – | – | – | ≦0.5 mg/L | 1 µg/mL | ≦0.5 mg/L | ≦0.5 mg/L | ≦0.5 mg/L | hydrolysis by esterase (porcine liver esterase): totally hydrolysed; Binding (%) (EMRSA-16 cells): 22%; Oxacillin MIC (S. aureus BB568 [5]; [14]): 1 mg/L; Oxacillin MIC (EMRSA-16 [6]; [14]): 1 mg/L; reduction of β-lactam MIC (40 MRSA strains): reduced the MIC values to the susceptibility breakpoint or below |
| O=C(N[C@@H]1Cc2c(O)cc(O)cc2O[C@@H]1c1ccc(O)c(O)c1)c1cc(O)c(O)c(O)c1 [Ex 1] | 4/8 | 1/1 | – | – | – | 128/256 | 128/128 | 128/256 | extremely weak intrinsic antibacterial activity | – | – | 32/64 | 32/64 | 1/1 | Oxacillin MIC, each of the three MRSA strains [8, 11]: able to reduce the resistance to oxacillin of all three strains; hydrolysis by esterase (porcine liver esterase): not affected; MIC (S. aureus BB568 [2]; [9]): 256 µg/mL; MIC (EMRSA-16 [3]; [10]): 128 µg/mL; MIC (EMRSA-15 [4]; [10]): 256 µg/mL |

— US7700646B2, “Compounds for use in the treatment of infection” (The University of London, School of Pharmacy, priority 2004, dated 2010)
